# According to patent US20140323533A1, “COMBINATION OF ANTI-CTLA4 ANTIBODY WITH TUBULIN MODULATING AGENTS FOR THE TREATMENT OF PROLIFERATIVE DISEASES” (BRISTOL-MYERS SQUIBB COMPANY, priority 2013, published 2014):
# Several values for one entry are separate records, joined by “and”; a condition that tells them apart may be missing. Equal values may be shown once.
# How the values were obtained:
# [1] = test system: CT26 colon carcinoma; test: Antitumor activity in the CT26 colon tumor model; format: in vivo, mouse; conditions: for % Complete Regressions/Total # mice: IP every 4 days x3, ixabepilone 8, paclitaxel 24, CTLA-4 mAb 20 mg/kg; for antitumor effect in words: text and FIG. 2
# Description: (§1) Tumor cell lines were maintained in vitro. Treatments were initiated when the subcutaneous tumors reached a median size between 100-200 mm^3 (established model) or prior to detection (initiation model). Tumors were measured twice weekly and tumor size (mm^3) was calculated as (length×width^2)/2. Body weights were obtained weekly. The tumor models used in these studies are outlined in Table 1.
# (§2) The dose levels, routes and dosing schedules are indicated for each particular study described below. Antibodies and chemotherapeutic agents were administered intraperitoneally (i.p.). Each treatment regimen consisted of a cohort of eight to ten mice. Anti-tumor activity, defined as percentage tumor growth inhibition, was calculated as follows: […]
# Next, the antitumor effects of CTLA-4 mAb and nmicrotubule-stabilizing agents were studied in a model not sensitive to ixabepilone or paclitaxel, the CT26 colon carcinoma model.
# [2] = test system: SA1N fibrosarcoma; test: Antitumor activity in the SA1N fibrosarcoma tumor model; format: in vivo, mouse; conditions: for % TGI: IP every 4 days x3; for CR/Total # mice: complete regressions; for T-C: target size 500 mm^3
# Description: as §1
# The dose levels, routes and dosing schedules are indicated for each particular study described below. Antibodies and chemotherapeutic agents were administered intraperitoneally (i.p.). Each treatment regimen consisted of a cohort of eight to ten mice. Anti-tumor activity, defined as percentage tumor growth inhibition, was calculated as follows:
# % Tumor Growth Inhibition=100−[(Tt/To)/(Ct/Co)]/100−(Ct/Co)
# (§3) In addition, another parameter used to define efficacy was to determine time to tumor progression to target size (T−C), where the time (days) for the median tumor size of control (C) mice to reach target size was subtracted to the time for median tumor size of treated (T) mice to reach target size.
# SA1N fibrosarcoma is an inherently immunogenic tumor line which is sensitive to the effects of CTLA-4 blockade. Two studies were conducted to determine the effect of CTLA-4 blockade in combination with ixabepilone or paclitaxel in this tumor model (see Table 1). Animals were implanted with SA1N cells subcutaneously and treatments were initiated when tumors reached 100-150 mm^3. Experimental groups consisted of cohorts of 8 mice. Ixabepilone, paclitaxel and CTLA-4 mab were administered intraperitoneally (IP) every 4 days for 3 doses. In the combination groups, CTLA-4 mab was administered one day after each chemotherapy treatment.
# [3] = test system: EMT-6 mammary carcinoma; test: Antitumor activity in the EMT-6 mammary tumor model; format: in vivo, mouse; conditions: for % Tumor-free Mice / T-C: Study 27; for T-C: treatment from day 3/4, every 4 days x3 IP, ixabepilone 8, paclitaxel 24, CTLA-4 mAb 20 mg/kg
# Description: as §1, §2, §3
# [4] = test system: M109 lung carcinoma; test: Antitumor activity in the M109 lung carcinoma tumor model; format: in vivo, mouse; conditions: for % Tumor-Free Mice after Initial Tumor Implantation: Study 40, footnote: percentage of animals that develop tumors following implantation on Day 0
# Description: as §1, §2
# The antitumor effects of CTLA-4 mAb and microtubule-stabilizing agents were also studied in the M109 lung carcinoma model, a tumor line which is not sensitive to the effect of CTLA-4 blockade. In these studies treatments with chemotherapeutic agents were initiated when tumors were palpable, on day 3 after tumor implantation. This regimen was selected to produce a measurable antitumor effect, which was not observed when treatments were initiated at a later time. As in the studies conducted in the SA1N and EMT-6 tumor lines, CTLA-4 mAb was dosed one day after treatment with chemotherapy.
# [5] = test system: A2780, HCT116, LS174T, HCT116/VM46, Pat-7, A2780Tax, Pat-21 tumor models; test: Preclinical pharmacology studies of Compound 1 in tumor models; format: in vivo
# [6] = test system: SA1N fibrosarcoma, M109 lung carcinoma, EMT-6 mammary carcinoma, CT-26 colon carcinoma and B16 melanoma; test: Efficacy studies across murine tumor lines (summary); format: in vivo, mouse; conditions: animals with complete regressions rechallenged with lethal dose of tumor cells
# Description: Efficacy studies were conducted in 3 different tumor lines implanted in immunocompetent mice: SAlN fibrosarcoma, MI09 lung carcinoma and EMT-6 mammary carcinoma. […] For the combination group, anti-CTLA-4 mAb was administered one day after each ixabepilone treatment. In selected studies, animals with complete tumor regressions were rechallenged with a lethal dose of tumor cells to determine the level of immune protection. In other studies, the combined efficacy of CTLA-4 mAb+ixabepilone was compared directly with CTLA-4 InAb+paclitaxel.
# The effect of an anti-mouse CTLA-4 blocking antibody, the murine homolog of ipilimumab, was evaluated in multiple murine tumor models in combination with the microtubule-stabilizing agents paclitaxel (TAXOL®), and ixabepilone (IXEMPRA®). Efficacy studies were conducted in 5 different tumor lines: SA1N fibrosarcoma, M109 lung carcinoma, EMT-6 mammary carcinoma, CT-26 colon carcinoma and B16 melanoma. Ixabepilone, paclitaxel and CTLA-4 mAb were administered at their optimal dose and schedule: ixabepilone, 8 mg/kg; paclitaxel, 24 mg/kg, CTLA-4 mAb, 20 mg/kg every 4 days for 3 doses. For the combination group, anti-CTLA-4 mAb was administered one day after each ixabepilone or paclitaxel treatment. In selected studies, animals with complete tumor regressions were rechallenged with a lethal dose of tumor cells to determine the level of immune protection.
# [7] = test system: M109 lung carcinoma; test: M109 tumor rechallenge of tumor-free mice; format: in vivo, mouse
# Description: To determine whether the combination of CTLA-4+ixabepilone produced a memory immune response able to reject a secondary tumor challenge, animals free of tumors by day 97 were re-challenge with a lethal M109 cell inoculum.
# [8] = Study 17, calculated Day 33, ixabepilone 8, paclitaxel 24, CTLA-4 mAb 20 mg/kg
# [9] = Study 17, study terminated day 116
compound,measurement,setting,value
"5beta,20-Epoxy-1,2alpha,4,7beta, 10beta, 13alpha-hexahydroxytax-11-en-9-one 4,10-diacetate 2-benzoate 13-ester with (2R,3S)—N-benzoyl-3-phenylisoserine [Paclitaxel]",% Complete Regressions/Total # mice,[1],0/10
same,antitumor effect in words,[1],neither paclitaxel or ixabepilone produced any measurable antitumor activity
same,% TGI,"[2]; Study 11, calculated Day 34, paclitaxel 24, CTLA-4 mAb 20 mg/kg",88%
same,CR/Total # mice,[2]; Study 11,3/8
same,T-C,"[2]; Study 11, study terminated day 52",13 days
same,% TGI,[2]; [8],0%
same,CR/Total # mice,[2]; Study 17,0/8
same,T-C,[2]; [9],0 days
same,antitumor effect in words,[2]; both SA1N studies,variable effect
same,antitumor effect in words,[3],ineffective
same,% Tumor-free Mice,[3],0%
same,T-C,[3],0 days
same,antitumor effect in words,[4]; FIG. 1,did not produce antitumor effects
same,% Tumor-Free Mice after Initial Tumor Implantation,[4],100%
"C/C(=C\c1csc(C)n1)[C@@H]1C[C@@H]2O[C@]2(C)CCC[C@H](C)[C@H](O)[C@@H](C)C(=O)C(C)(C)[C@@H](O)CC(=O)N1 (relative stereo) [Compound 1, [1S-[1R*,3R*(E),7R*,10S*,11R*,12R*,16S*]]-7,11-dihydroxy-8,8,10,12,16-pentamethyl-3-[1-methyl-2-(2-methyl-4-thiazolyl)ethenyl]-4-aza-17-oxabicyclo[14.1.0]heptadecane-5,9-dione]",oral efficacy in words,[5]; oral vs parenteral administration,orally efficacious
same,antitumor activity in words,[5]; paclitaxel-sensitive and paclitaxel-resistant human tumor models,very impressive and broad spectrum of antitumor activity
"C/C(=C\c1csc(C)n1)[C@@H]1C[C@@H]2O[C@]2(C)CCC[C@H](C)[C@H](O)[C@@H](C)C(=O)C(C)(C)[C@@H](O)CC(=O)N1 [Ixabepilone, (1S,3S,7S,10R,11S,12S,16R)-7,11-dihydroxy-8,8,10,12,16-pentamethyl-3-[(1E)-1-methyl-2-(2-methyl-4-thiazolyl)ethenyl]-17-oxa-4-azabicyclo[14.1.0]heptadecane-5,9-dione]",% Complete Regressions/Total # mice,[1],0/10
same,antitumor effect in words,[1],neither paclitaxel or ixabepilone produced any measurable antitumor activity
same,"CR/Total # mice, percentage in parentheses (% CR)",[2]; Study 9,(37.5) %
same,% TGI,"[2]; Study 9, calculated Day 36, ixabepilone 8 mg/kg, CTLA-4 mAb 20 mg/kg",92%
same,CR/Total # mice,[2]; Study 9,3 out of 8 and 3/8
same,T-C,"[2]; Study 9, study terminated day 39",11 days
same,"CR/Total # mice, percentage in parentheses (% CR)",[2]; Study 17,(0) %
same,% TGI,[2]; [8],83%
same,CR/Total # mice,[2]; Study 17,0/8
same,T-C,[2]; [9],7 days
same,% Tumor-free Mice,[3],20%
same,T-C,[3],19 days
same,protection against tumor rechallenge in words,[6],only partial protection
same,% mice developing tumors after rechallenge,"[7]; Study 40, footnote: percentage of mice that develop tumors after tumor rechallenge on Day 95",75%
same,"mice that developed tumors after rechallenge, percent",[7]; tumor-free mice re-challenged with lethal M109 inoculum,80%
same,mice that developed tumors after rechallenge,"[7]; tumor-free mice re-challenged with lethal M109 inoculum, count",4 out of 5
same,treated animals in which tumor growth was inhibited,[4],50%
same,% Tumor-Free Mice after Initial Tumor Implantation,[4],50%
